Among the data in patent publication US20240166660A1, “KRAS G12C INHIBITORS” (BeiGene Switzerland GmbH, priority 2021, published 2024) are IC50 values, retold here.

This assay concerns the target KRAS (aa 1-169) G12C, C51S, C80L, C118S (Homo sapiens (Human), UniProt P01116, C118S/C51S/C80L/G12C). As to the kind of experiment: Biochemical functional assay: SOS1-mediated nucleotide exchange of GDP-loaded KRAS G12C, binding to GST-cRaf RBD, FRET readout. Particulars: 3 hrs pre-incubation with compound at 24° C., SOS1, GTPyS, inhibition of nucleotide exchange. The method in brief: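 GDP-loaded His-tagged KRAS construct preincubated with compound 3 h at 24° C in 25 mM HEPES pH7.5, 10 mM MgCl2, 0.01% Triton X-100; SOS1 (aa 564-1049), GTPγS and GST-cRaf RBD added for 3 h, then anti-His Tb cryptate/anti-GST XL665 for 3 h. HTRF 665/620 ratio; IC50 by four-parameter logistic fit.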

Chain of KRAS (aa 1-169) G12C, C51S, C80L, C118S (P01116 other isoform, or with tags, fused parts or gaps G12C/C51S/C80L/C118S): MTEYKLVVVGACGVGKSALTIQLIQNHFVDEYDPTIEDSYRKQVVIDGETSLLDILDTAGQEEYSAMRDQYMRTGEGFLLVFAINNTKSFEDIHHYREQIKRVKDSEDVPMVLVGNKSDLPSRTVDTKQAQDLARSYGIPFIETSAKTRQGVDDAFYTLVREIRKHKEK

As to `C=C(F)C(=O)N1CCN(c2nc(OC[C@@H]3CCCN3C)nc3cc(-c4cccc5c4CCC5)c4c(c23)OCCC4)C[C@@H]1CC#N` [Compound B78, 2-((S)-4-(5-(2,3-dihydro-1H-inden-4-yl)-8-(((S)-1-methylpyrrolidin-2-yl)methoxy)-3,4-dihydro-2H-pyrano[2,3-f]quinazolin-10-yl)-1-(2-fluoroacryloyl)piperazin-2-yl)acetonitrile], the IC50 turned out to be 12 nM.
As for `C=C(F)C(=O)N1CCN(c2nc(N3CC(N(C)C)C3)nc3cc(-c4c(Cl)c(C)cc5[nH]ncc45)c4ccoc4c23)C[C@@H]1CC#N` [Compound B79, 2-((2S)-4-(4-(5-chloro-6-methyl-1H-indazol-4-yl)-7-(3-(dimethylamino)azetidin-1-yl)furo[2,3-f]quinazolin-9-yl)-1-(2-fluoroacryloyl)piperazin-2-yl)acetonitrile], the IC50 was determined as 59 nM.
Next, `C=C(F)C(=O)N1CCN(c2nc(N3CC(CC#N)(N(C)C)C3)nc3cc(-c4cccc5cccc(Cl)c45)c4ccoc4c23)C[C@@H]1CC#N` [Compound B80, (S)-2-(4-(4-(8-chloronaphthalen-1-yl)-7-(3-(cyanomethyl)-3-(dimethylamino)azetidin-1-yl)furo[2,3-f]quinazolin-9-yl)-1-(2-fluoroacryloyl)piperazin-2-yl)acetonitrile]: 222 nM.
Take `C=C(F)C(=O)N1CCN(c2nc(OC[C@@H]3CCCN3C)nc3cc(-c4cccc5c4CCCC5)c4c(c23)OCCC4)C[C@@H]1CC#N` [Compound B81, 2-((S)-1-(2-fluoroacryloyl)-4-(8-(((S)-1-methylpyrrolidin-2-yl)methoxy)-5-(5,6,7,8-tetrahydronaphthalen-1-yl)-3,4-dihydro-2H-pyrano[2,3-f]quinazolin-10-yl)piperazin-2-yl)acetonitrile]: the concentration for half-maximal inhibition (IC50) came to 48 nM.
As to `C=CC(=O)N1CCN(c2nc(OC[C@@H]3CCCN3C)nc3cc(-c4cccc5cccc(Cl)c45)c4c(c23)OCCC4)C[C@@H]1CC#N` [Compound B82, 2-((S)-1-acryloyl-4-(5-(8-chloronaphthalen-1-yl)-8-(((S)-1-methylpyrrolidin-2-yl)methoxy)-3,4-dihydro-2H-pyrano[2,3-f]quinazolin-10-yl)piperazin-2-yl)acetonitrile], the IC50 was found to be 6.2 nM.
Turning to `C=CC(=O)N1CCN(c2nc(N3CC(N(C)C)C3)nc3cc(-c4ccccc4C(F)(F)F)c4ccoc4c23)CC1` [Compound B83, 1-(4-(7-(3-(dimethylamino)azetidin-1-yl)-4-(2-(trifluoromethyl)phenyl)furo[2,3-f]quinazolin-9-yl)piperazin-1-yl)prop-2-en-1-one], the IC50 was 1700 nM.
On to `C=C(F)C(=O)N1CCN(c2nc(OC3CCCN(C)C3)nc3cc(-c4cccc5cccc(Cl)c45)c4c(c23)OCCC4)C[C@@H]1CC#N` (stereo partly drawn) [Compound B84, 2-((2S)-4-(5-(8-chloronaphthalen-1-yl)-8-((1-methylpiperidin-3-yl)oxy)-3,4-dihydro-2H-pyrano[2,3-f]quinazolin-10-yl)-1-(2-fluoroacryloyl)piperazin-2-yl)acetonitrile], for which the IC50 was determined as 483 nM.
Next, `C=C(F)C(=O)N1CCN(c2nc(OC(C)CN(C)C)nc3cc(-c4cccc5cccc(Cl)c45)c4c(c23)OCCC4)C[C@@H]1CC#N` (stereo partly drawn) [Compound B85, 2-((2S)-4-(5-(8-chloronaphthalen-1-yl)-8-((1-(dimethylamino)propan-2-yl)oxy)-3,4-dihydro-2H-pyrano[2,3-f]quinazolin-10-yl)-1-(2-fluoroacryloyl)piperazin-2-yl)acetonitrile]: 89 nM; `C=C(F)C(=O)N1CCN(c2nc(N3CC(COC)(N(C)C)C3)nc3cc(-c4cccc5cccc(Cl)c45)c4c(c23)OCCC4)C[C@@H]1CC#N` [Compound B86, (S)-2-(4-(5-(8-chloronaphthalen-1-yl)-8-(3-(dimethylamino)-3-(methoxymethyl)azetidin-1-yl)-3,4-dihydro-2H-pyrano[2,3-f]quinazolin-10-yl)-1-(2-fluoroacryloyl)piperazin-2-yl)acetonitrile]: 19 nM.
As for `C=C(F)C(=O)N1CCN(c2nc(OC[C@@H]3CCCN3C)nc3cc(-c4cccc(C(F)(F)F)c4)c4ccoc4c23)C[C@@H]1CC#N` [Compound B87, 2-((S)-1-(2-fluoroacryloyl)-4-(7-(((S)-1-methylpyrrolidin-2-yl)methoxy)-4-(3-(trifluoromethyl)phenyl)furo[2,3-f]quinazolin-9-yl)piperazin-2-yl)acetonitrile], the figure is 1520 nM.
With `C=C(F)C(=O)N1CCN(c2nc(N3CC(CF)(N(C)C)C3)nc3cc(-c4cccc5cccc(Cl)c45)c4c(c23)OCCC4)C[C@@H]1CC#N` [Compound B88, (S)-2-(4-(5-(8-chloronaphthalen-1-yl)-8-(3-(dimethylamino)-3-(fluoromethyl)azetidin-1-yl)-3,4-dihydro-2H-pyrano[2,3-f]quinazolin-10-yl)-1-(2-fluoroacryloyl)piperazin-2-yl)acetonitrile], the IC50 is 92 nM.
As for `C=C(F)C(=O)N1CCN(c2nc(OC[C@@H]3CCCN3C)nc3cc(-c4ccc(C(F)(F)F)cc4)c4ccoc4c23)C[C@@H]1CC#N` [Compound B89, 2-((S)-1-(2-fluoroacryloyl)-4-(7-(((S)-1-methylpyrrolidin-2-yl)methoxy)-4-(4-(trifluoromethyl)phenyl)furo[2,3-f]quinazolin-9-yl)piperazin-2-yl)acetonitrile], the figure is 691 nM.
As for `C=C(F)C(=O)N1CCN(c2nc(N3CC(CC#N)(N(C)C)C3)nc3cc(-c4cccc5cccc(Cl)c45)c4c(c23)OCCC4)C[C@@H]1CC#N` [Compound B90, (S)-2-(1-(5-(8-chloronaphthalen-1-yl)-10-(3-(cyanomethyl)-4-(2-fluoroacryloyl)piperazin-1-yl)-3,4-dihydro-2H-pyrano[2,3-f]quinazolin-8-yl)-3-(dimethylamino)azetidin-3-yl)acetonitrile], the figure is 37 nM.
As for `C=C(F)C(=O)N1CCN(c2nc(OC[C@@H]3CCCN3C)nc3cc(-c4ccc(Cl)c5ccccc45)c4c(c23)OCCC4)C[C@@H]1CC#N` [Compound B98, 2-((S)-4-(5-(4-chloronaphthalen-1-yl)-8-(((S)-1-methylpyrrolidin-2-yl)methoxy)-3,4-dihydro-2H-pyrano[2,3-f]quinazolin-10-yl)-1-(2-fluoroacryloyl)piperazin-2-yl)acetonitrile], the figure is 462 nM; as for `C=C(F)C(=O)N1CCN(c2nc(OC[C@@H]3CCCN3C)nc3cc(-c4ccc(F)c5ccccc45)c4c(c23)OCCC4)C[C@@H]1CC#N` [Compound B99, 2-((S)-1-(2-fluoroacryloyl)-4-(5-(4-fluoronaphthalen-1-yl)-8-(((S)-1-methylpyrrolidin-2-yl)methoxy)-3,4-dihydro-2H-pyrano[2,3-f]quinazolin-10-yl)piperazin-2-yl)acetonitrile], 152 nM; as for `C=C(F)C(=O)N1CCN(c2nc(N3CC(N(C)C)C3)nc3cc(-c4cccc5cccc(Cl)c45)c4c(c23)OCCC4)C[C@@H]1CC#N` [Compound B100, (S)-2-(4-(5-(8-chloronaphthalen-1-yl)-8-(3-(dimethylamino)azetidin-1-yl)-3,4-dihydro-2H-pyrano[2,3-f]quinazolin-10-yl)-1-(2-fluoroacryloyl)piperazin-2-yl)acetonitrile], 18 nM.
On to `C=C(F)C(=O)N1CCN(c2nc(OC[C@@H]3CCCN3C)nc3cc(-c4cccc(Cl)c4C(F)(F)F)c4c(c23)OCCC4)C[C@@H]1CC#N` [Compound B103, 2-((S)-4-(5-(3-chloro-2-(trifluoromethyl)phenyl)-8-(((S)-1-methylpyrrolidin-2-yl)methoxy)-3,4-dihydro-2H-pyrano[2,3-f]quinazolin-10-yl)-1-(2-fluoroacryloyl)piperazin-2-yl)acetonitrile], for which the IC50 was determined as 6.95 nM.

For orientation: IC50 means the midpoint of a concentration-inhibition curve.
